Measured values: ChEMBL document CHEMBL1154163, “Pyrazole-based cathepsin S inhibitors with arylalkynes as P1 binding elements” (Bioorg Med Chem Lett, 2009)

Key:
Cathepsin S [1] = biological target: Cathepsin S (Homo sapiens, UniProt P25774); assay: Inhibition of human recombinant cathepsin S expressed in baculovirus by FRET assay
[2] = Bioavailability in Sprague-Dawley rat at 2 mg/kg, iv; assay type: ADME, organism-based; settings: in vivo
[3] = Clearance in Sprague-Dawley rat at 2 mg/kg, iv; assay type: ADME, organism-based; set-up: dose 2 mg/kg, route intravenous; settings: in vivo
Cathepsin S [4] = biological target: Cathepsin S (Mus musculus, UniProt O70370); assay: Inhibition of mouse cathepsin S expressed in baculovirus by FRET assay
Sequence of Cathepsin S (Mus musculus, UniProt O70370) (O70370 whole entry): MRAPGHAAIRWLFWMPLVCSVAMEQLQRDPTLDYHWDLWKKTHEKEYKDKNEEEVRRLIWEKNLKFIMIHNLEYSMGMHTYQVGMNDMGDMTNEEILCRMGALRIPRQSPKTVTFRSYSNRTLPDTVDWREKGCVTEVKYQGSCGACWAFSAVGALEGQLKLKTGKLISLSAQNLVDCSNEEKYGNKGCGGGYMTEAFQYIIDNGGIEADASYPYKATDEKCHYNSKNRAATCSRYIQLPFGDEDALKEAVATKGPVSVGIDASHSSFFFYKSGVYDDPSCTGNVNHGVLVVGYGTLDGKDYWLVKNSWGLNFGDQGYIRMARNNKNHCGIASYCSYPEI

Cathepsin F = biological target: T1, Cathepsin F (Homo sapiens, UniProt Q9UBX1); assay: Inhibition of human cathepsin F
T1 sequence (Q9UBX1 whole entry): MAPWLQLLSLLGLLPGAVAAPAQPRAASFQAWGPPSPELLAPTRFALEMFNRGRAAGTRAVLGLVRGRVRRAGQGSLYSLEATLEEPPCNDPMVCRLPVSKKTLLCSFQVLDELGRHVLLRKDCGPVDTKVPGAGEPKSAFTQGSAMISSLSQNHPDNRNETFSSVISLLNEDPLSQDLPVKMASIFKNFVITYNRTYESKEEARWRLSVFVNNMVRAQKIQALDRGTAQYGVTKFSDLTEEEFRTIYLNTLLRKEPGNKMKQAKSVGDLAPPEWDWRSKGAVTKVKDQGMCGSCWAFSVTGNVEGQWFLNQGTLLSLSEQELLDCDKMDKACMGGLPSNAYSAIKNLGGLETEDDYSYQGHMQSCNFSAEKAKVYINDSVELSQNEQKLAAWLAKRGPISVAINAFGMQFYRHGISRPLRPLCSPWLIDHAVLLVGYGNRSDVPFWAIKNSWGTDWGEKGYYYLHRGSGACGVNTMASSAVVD

Cathepsin B = Cathepsin B (Homo sapiens, UniProt P07858); assay: Inhibition of human cathepsin B
Rattus norvegicus = assay: AUC in Sprague-Dawley rat at 10 mg/kg, po; assay type: ADME, organism-based, Plasma; set-up: dose 10 mg/kg, route oral; settings: in vivo
[5] = Half life in Sprague-Dawley rat at 2 mg/kg, iv; assay type: ADME, organism-based; set-up: dose 2 mg/kg, route intravenous; settings: in vivo
[6] = Cmax in Sprague-Dawley rat at 10 mg/kg, po; assay type: ADME, organism-based; set-up: dose 10 mg/kg, route oral; settings: in vivo
Procathepsin L = Procathepsin L (Homo sapiens, UniProt P07711); assay: Inhibition of human cathepsin L
Sequence of Procathepsin L (P07711 whole entry): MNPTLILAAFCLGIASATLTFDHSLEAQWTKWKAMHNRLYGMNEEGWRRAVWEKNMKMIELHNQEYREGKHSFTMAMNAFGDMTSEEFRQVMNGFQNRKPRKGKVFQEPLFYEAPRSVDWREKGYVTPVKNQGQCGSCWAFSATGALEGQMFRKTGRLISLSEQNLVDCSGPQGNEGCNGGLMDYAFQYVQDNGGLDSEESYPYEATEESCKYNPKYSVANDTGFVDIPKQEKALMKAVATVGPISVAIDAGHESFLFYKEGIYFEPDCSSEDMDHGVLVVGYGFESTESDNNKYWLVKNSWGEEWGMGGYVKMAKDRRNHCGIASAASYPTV

Sequence of Cathepsin S (Homo sapiens, UniProt P25774) (P25774 whole entry): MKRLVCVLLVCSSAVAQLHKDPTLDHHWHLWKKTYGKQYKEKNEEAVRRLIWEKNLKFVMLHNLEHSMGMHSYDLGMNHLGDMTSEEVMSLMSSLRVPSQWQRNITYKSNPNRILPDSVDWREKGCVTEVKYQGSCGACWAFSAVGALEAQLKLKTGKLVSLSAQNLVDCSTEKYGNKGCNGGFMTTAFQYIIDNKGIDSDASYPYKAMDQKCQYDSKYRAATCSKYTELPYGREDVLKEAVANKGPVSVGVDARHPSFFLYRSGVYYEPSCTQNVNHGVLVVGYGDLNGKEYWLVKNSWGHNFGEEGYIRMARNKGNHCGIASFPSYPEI

Structure (SMILES)	IC50 (Cathepsin S [1])	other results
CS(=O)(=O)N1CCc2c(c(-c3ccc(Cl)c(C#Cc4ccsc4)c3)nn2CCCN2CCOCC2)C1	1500 nM	–
COc1ccccc1C#Cc1cc(-c2nn(CCCN3CCOCC3)c3c2CN(S(C)(=O)=O)CC3)ccc1Cl	550 nM	–
CCCCC#Cc1cc(-c2nn(CCCN3CCOCC3)c3c2CN(S(C)(=O)=O)CC3)ccc1Cl	11000 nM	–
CS(=O)(=O)N1CCc2c(c(-c3ccc(Cl)c(C#Cc4ccc(C(=O)O)cc4)c3)nn2CCCN2CCOCC2)C1	510 nM	–
COc1ccc(C#Cc2cc(-c3nn(CCCN4CCOCC4)c4c3CN(S(C)(=O)=O)CC4)ccc2Cl)cc1	480 nM	–
CS(=O)(=O)N1CCc2c(c(-c3ccc(Cl)c(C#Cc4ccc(C(F)(F)F)cc4)c3)nn2CCCN2CCOCC2)C1	280 nM	–
O=C(c1ccco1)N1CCc2c(c(-c3ccc(Cl)c(C#Cc4ccc(Cl)cc4)c3)nn2CCCN2CCOCC2)C1	330 nM	–
COC(=O)N1CCc2c(c(-c3ccc(Cl)c(C#Cc4ccc(Cl)cc4)c3)nn2CCCN2CCOCC2)C1	40 nM	–
CS(=O)(=O)N1CCc2c(c(-c3ccc(Cl)c(C#Cc4ccc(Cl)cc4)c3)nn2CCCN2CCOCC2)C1	–	bioavailability [2]: 21%; clearance [3]: 3 mL/min; IC50 (Cathepsin S [4]): 690 nM; IC50 (Cathepsin F): > 20000 nM; IC50 (Cathepsin B): > 20000 nM; AUC (Rattus norvegicus): 48 uM.hr/L; half-life [5]: 2 h; Cmax [6]: 530 nM; IC50 (Procathepsin L): > 20000 nM
Cc1ccccc1C#Cc1cc(-c2nn(CCCN3CCOCC3)c3c2CN(S(C)(=O)=O)CC3)ccc1Cl	1100 nM	–
CS(=O)(=O)N1CCc2c(c(-c3ccc(Cl)c(C#Cc4cccc(C(F)(F)F)c4)c3)nn2CCCN2CCOCC2)C1	1500 nM	–
CS(=O)(=O)N1CCc2c(c(-c3ccc(Cl)c(C#Cc4ccc(N)cc4)c3)nn2CCCN2CCOCC2)C1	430 nM	–
CC#Cc1cc(-c2nn(CCCN3CCOCC3)c3c2CN(S(C)(=O)=O)CC3)ccc1Cl	7400 nM	–
